Consider four compounds from US20260356814A1, “INDOLINE DERIVATIVES AS SEROTONERGIC AGENTS USEFUL FOR THE TREATMENT OF DISORDERS RELATED THERETO” (MINDSET PHARMA INC., priority 2022, published 2026).

Common to all, as to assay type: in vitro ADME
Holding throughout (settings): 37° C.; for remaining at 0.5 h: 30 min, read-out: Remaining Percentage (%), 30 min; for remaining at 1 h: 60 min, read-out: Remaining Percentage (%), 60 min; for half-life: >255.85 if remaining at 60 min greater than 85%

The nature of data set [1]: Plasma stability, human. The procedure: (§1) • a. […] The final concentration of organic solvents was 0.5%. The assay was performed in duplicated. • b.
(§2) All calculations were carried out using Microsoft Excel.

Data set [2] is described as follows: Plasma stability, rat. As to the method:
as §1, §2

A short description of data set [3]: Plasma stability, mouse. The procedure:
as §1, §2

Consider `[2H]C([2H])([2H])N1CCC[C@@H]1C([2H])([2H])N1CCc2ccc(OC)cc21` [(R)-I-57, (R)-6-Methoxy-1-((1-(methyl-d3)pyrrolidin-2-yl)methyl-d2) indoline], for which, in data set [1], the “Remaining Percentage (%), 0 min” value was 100.00%; the share remaining at 0.5 h was 108%; the amount remaining at 1 h was determined as 113%; the half-life is over 4.26 h. In addition, in data set [2], the “Remaining Percentage (%), 0 min” value was 100.00%; the fraction remaining at 0.5 h came out at 92.5%; the fraction remaining at 1 h was 89.7%; the half-life was over 4.26 h. In data set [3], the “Remaining Percentage (%), 0 min” value is reported as 100.00%; the fraction remaining at 0.5 h turned out to be 105%; the amount remaining at 1 h amounted to 100%; the half-life was over 4.26 h.
With `COc1cccc2c1N(C[C@H]1CCCN1C)CC2` [(R)-I-46, (R)-7-Methoxy-1-((1-methylpyrrolidin-2-yl)methyl) indoline], in data set [1], the “Remaining Percentage (%), 0 min” value is recorded as 100.00%; the fraction remaining at 0.5 h turned out to be 104%; the amount remaining at 1 h worked out at 93%; the half-life was over 4.26 h. Moreover, in data set [2], the “Remaining Percentage (%), 0 min” value is 100.00%; the amount remaining at 0.5 h is 91.3%; the amount remaining at 1 h is 86.7%; the half-life is over 4.26 h. Moreover, in data set [3], the “Remaining Percentage (%), 0 min” value is 100.00%; the amount remaining at 0.5 h worked out at 103%; the amount remaining at 1 h came out at 92.4%; the half-life is over 4.26 h.
As for `[2H]C([2H])([2H])Oc1ccc2c(c1)N(C([2H])([2H])[C@H]1CCCN1C([2H])([2H])[2H])CC2` [(R)-I-28, (R)-6-(Methoxy-d3)-1-((1-(methyl-d3)pyrrolidin-2-yl)methyl-d2) indoline], in data set [1], the “Remaining Percentage (%), 0 min” value was found to be 100.00%; the amount remaining at 0.5 h is 95.1%; the fraction remaining at 1 h came to 94.2%; the half-life was over 4.26 h. In addition, in data set [2], the “Remaining Percentage (%), 0 min” value is 100.00%; the amount remaining at 0.5 h was found to be 97.9%; the share remaining at 1 h was determined as 94.7%; the half-life is over 4.26 h. Moreover, in data set [3], the “Remaining Percentage (%), 0 min” value is listed as 100.00%; the fraction remaining at 0.5 h was 99.2%; the fraction remaining at 1 h is 93.3%; the half-life is over 4.26 h.
Regarding `COc1ccc2c(c1)N(C[C@H]1CCCN1C)CC2` [(R)-I-58, (R)-6-Methoxy-1-((1-methylpyrrolidin-2-yl)methyl) indoline], in data set [1], the “Remaining Percentage (%), 0 min” value was 100.00%; the fraction remaining at 0.5 h is 108%; the share remaining at 1 h was 98.5%; the half-life is over 4.26 h. For the same compound, in data set [2], the “Remaining Percentage (%), 0 min” value is reported as 100.00%; the amount remaining at 0.5 h is 111%; the share remaining at 1 h came to 110%; the half-life was over 4.26 h. In data set [3], the “Remaining Percentage (%), 0 min” value was determined as 100.00%; the share remaining at 0.5 h was 97.4%; the amount remaining at 1 h came to 105%; the half-life is over 4.26 h.
